Measurements from article PMC12388300, “The Chelating Abilities of Tertiary Amines with N-O-Donors Towards Cu(II) Ions and the Catalytic Properties of the Resulting Complexes” (Molecules, 2025).
Marks after values point to notes of the source that are not given here.

Experiments:
[1] = Peroxidase activity: morin oxidation with H2O2; format: biochemical; conditions: after 16 h with H2O2; [Morin] = 0.16 mM, [Catalyst] = 1.6 μM, [H2O2] = 0.01 M, PBS 50 mM, pH 7.8
Experimental: Since initial antioxidant evaluations were conducted without incorporating oxidizable substrates, it is therefore essential to assess the behavior of the complexes in the presence of organic substrates. To this aim, we employed two distinct categories of model substrate: morin and o-phenylenediamine (OPD). We evaluated the spectral changes during morin oxidation, i.e., absorbance decreases for the substrate (Figure 7 and Figures S50–S53 in the Supporting Materials) and increase for the 2,3-diaminephenazine (DAP), the product of the oxidative degradation of the OPD (Figures S55–S58 in the Supporting Materials).
Figure 7 Residual absorbance of morin at the maximum absorption (390 nm) after reaction of the complexes with H2O2 for 16 h. [Morin] = 0.16 mM, [Catalyst] = 1.6 μM, [H2O2] = 0.01 M, PBS buffer (50 mM), pH 7.8.
Peroxidase activity was evaluated via UV-Vis spectroscopy by monitoring the time-dependent absorbance changes of oxidized substrates in the presence of H₂O₂ and copper complexes. Two substrates were used: morin and o-phenylenediamine (OPD).
For morin, the oxidative degradation (Figure S49) was evidenced by a decrease in absorbance at 390 nm. […]
The reaction kinetics were monitored over 18 hours with spectra collected every 20 minutes (Figures S50–S53). […]
Figure S50: Absorbance variation of the morine, with the complex Cu(HL1)(ClO 4)2. […]

[2] = SOD activity, indirect cytochrome C (CytC) assay, xanthine/xanthine oxidase; format: biochemical; conditions: [CytC] = 10 μM, pH = 7.8; for IC50: CytC assay, [xanthine] = 40 μM, [xanthine oxidase] = 0.0053 U/mL, phosphate buffer 50 mM; for Log (kcat): kcat(O2•−)=kCytC·[CytC]/IC50, kCytC=2.6×10^5 M^−1s^−1
Experimental: To reduce uncertainty about the actual active species involved in the reaction, the catalytic investigations were made with the isolated species. The ability to catalyze superoxide dismutation was assessed using the indirect cytochrome C-based assay originally introduced by McCord and Fridovich. In this kind of test, the presence of a catalyst with SOD activity, acting as a scavenger for O2^•− and generated via a xanthine/xanthine oxidase system, prevents the electron transfer to cytochrome C (Cyt C) to form […].
(§1) Catalytic measurement assays were conducted using a Varian Cary 100 spectrophotometer with a 3 mL quartz cuvette (1 cm path length) for evaluating SOD-like activity. For the assessment of peroxidase-mimicking activity, a Varian Cary 50 instrument and identical cuvettes were utilized. To monitor the CAT-like activity, a 25 mL vial, equipped with a septum for solution injection, was used as a reactor and connected to a pressure transducer.

[3] = UV–Vis monitoring of complex stability during H2O2 dismutation; format: physicochemical; conditions: complex 200 μM, H2O2 10 mM in BBS 50 mM pH 7.8
Excerpt: The reaction progression was monitored by UV–Vis to gather insights into the stability of the complexes during H2O2 dismutation (Figures S45–S48 in Supplementary Materials). Analyzing the spectra recorded for the systems derived from HL1 and HL5, it is possible to observe changes in the absorption bands. In the case of the mononuclear species containing HL1, the alteration in the absorption band takes place over a comparatively extended period, in agreement with the occurrence of the delay period previously noted. The intensity associated with the π→π * electronic transition progressively diminishes, coinciding with a rise in molecular oxygen generation. Such a trend implies structural reconfiguration within the coordination environment of the complex, which appears necessary to initiate the catalytic event. On the other hand, the characteristic absorption feature vanishes after 4 h as a result of the formation of radical species. The UV–Vis profile of the complex Cu(HL5)(ClO4)2 (Figure S46) undergoes a faster modification.
Figure S46: UV-Vis spectra of Cu(HL5)(ClO4)2 at time 0 (red) and after 7 h (light red). The colours variation represents an increment of 5 min from t=0 to t=15 min, of 15 min from t=15 to t= 45 min and 45 min from t= 45 to t=360 min.
Conditions: [Cu(HL5)(ClO4)2]= 200 uM, [H2O2]=10mM in BBS 50mM pH=7.8. Zoom: temporal trends compared to O2 (red) and Abs (light red) on the maximum absorption at 294 nm.
Figure S47: UV-Vis spectra of Cu2(L1)2(ClO4)2 at time 0 (blue) and after 24 hours (light blue). Every change of colors represents a temporal increase of 90 minutes. Conditions: [Cu2(L1)2(ClO4)2] = 200 µM, [H2O2] = 10 mM in BBS 50 mM, pH = 7.8. Zoom: temporal trends compared to O2 (blue) and Abs (light blue) on the maximum absorption at 288 nm.
Figure S48: UV-Vis spectra of Cu2(L5)2(ClO4)2 at time 0 (dark green) and after 24 hours (light green). Every change of colours represents a temporal increase of 90 minutes. Conditions: [Cu2(L5)2(ClO4)2] = 200 µM, [H2O2] = 10 mM in BBS 50 mM, pH = 7.8. […]

[4] = CAT-like activity: O2 pressure from hydrogen peroxide dismutation; format: biochemical; parameters: Rmax: unit not given here; conditions: [catalyst] = 200 μM, [H2O2] = 20–30 mM in BBS 50 mM, pH = 7.8
Experimental: The studied catalase-like activity of the complexes was evaluated by measuring the pressure resulting from the oxygen produced during the dismutation of the hydrogen peroxide. For this analysis, a borate-based buffer system (BBS 50 mM, pH 7.8) was utilized to avoid the competitive binding of phosphate anions.
as §1, with “transducer. […]” for “transducer.”
To monitor the CAT-like activity, a 25 mL vial was used as a reactor, connected to a pressure transducer and
a septum for the injection.

[5] = Cyclic voltammetry of the Cu(II)/Cu(I) couple; format: physicochemical; conditions: for ΔE: Epc − Epa; for ΔE / │ia/ic│ / E1/2: PBS pH 7.8; for │ia/ic│: peak current ratio; for E1/2 / Epa / Epc: vs NHE; for E1/2: E1/2=(Epc+Epa)/2; for Epa / Epc: PBS 10 mM, 150 mM NaCl, pH 7.8, 0.25 mM complex
Experimental: To assess this behavior, the corresponding redox potentials were measured by cyclic voltammetry (CV), offering key insights into the electron-transfer properties of the complexes. The metal ion redox potential should ideally lie between the potential for oxidation (−0.16 V vs. NHE) (Equation (1)) and reduction (0.89 V vs. NHE) of superoxide radicals (Equation (2)).(1) O2∙−→O2+e^− (2) O2∙−+e^−+H^+→H2O2
The key electrochemical parameters extracted from the cyclic voltammograms are summarized in Table 3, highlighting a similar redox behavior of the complexes with both ligands. However, the nature of the anion appears to influence the properties of the mononuclear species formed in situ, compared with the isolated complexes.
Cyclic voltammetry experiments were carried out using a BAS Cell C3 EC-epsilon potentiostat equipped with a conventional three-electrode system consisting of a glassy carbon working electrode (3 mm diameter, geometric surface 7 mm^2), a platinum wire counter electrode (CE), and a silver/silver chloride reference electrode (Ag/AgCl, 3 M KCl). Voltammograms were recorded in phosphate-buffered saline (PBS; 10 mM, 150 mM NaCl, pH 7.8) containing 0.25 mM of the complex. The measurements were performed within a potential window from −600 mV to +400 mV, employing various scan rates (50 mV/s, 100 mV/s, 200 mV/s, 400 mV/s, and 800 mV/s).

With `COc1cccc(CN(Cc2ccccn2)Cc2ccccn2)c1[O-].COc1cccc(CN(Cc2ccccn2)Cc2ccccn2)c1[O-].[Cu+2].[Cu+2].[O-][Cl+3]([O-])([O-])[O-].[O-][Cl+3]([O-])([O-])[O-]` [Cu2(L5)2(ClO4)2] the “residual absorbance of morin (390 nm)” value [1] was 40%, the IC50 [2] was 1.28 µM and the “Log (kcat)” value [2] was 6.31 ^h. The “time in which the π→π* absorbance feature fades / changes” value [3] was at most 90 min, the “Time (to maximum O2 production)” value [4] was 950 min and the O2 generated ([4]; triplicate, ±10% error) was 7.7 mmol/L. The Rmax ([4]; triplicate, ±10% error) was 0.36, the ΔE [5] was −0.081 V and the “│ia/ic│” value [5] was 0.90. For the same compound, the E1/2 [5] was −0.179 V, the Epa [5] was −0.138 V and the Epc [5] was −0.219 V.

In the case of `COc1cccc(CN(Cc2ccccn2)Cc2ccccn2)c1O.[Cu+2].[O-][Cl+3]([O-])([O-])[O-].[O-][Cl+3]([O-])([O-])[O-]` [Cu(HL5)(ClO4)2], the “residual absorbance of morin (390 nm)” value [1] is reported as 21%, the IC50 [2] is reported as 1.04 µM and the “Log (kcat)” value [2] is reported as 6.41 ^h. The “time in which the π→π* absorbance feature fades / changes” value [3] was “approximately 60 min”, the “Time (to maximum O2 production)” value [4] was 1300 min and the O2 generated ([4]; triplicate, ±10% error) was 9.8 mmol/L. The ΔE [5] was −0.106 V, the “│ia/ic│” value [5] was 0.52 and the E1/2 [5] was −0.149 V. For the same compound, the Epa [5] was −0.096 V and the Epc [5] was −0.202 V.
